Values joined by “and” are separate entries in the source; they are usually repeats but may differ in a detail not shown here. Identical values can stand only once. Counter-ions that a name gives are not always drawn.
Experiments:
[1] = target: T1, NR1-2D NMDAR (Homo sapiens, UniProt O15399+Q05586); test: cell-based; format: cell-based; design: host or cells: CHO (CHO-hN1-h2D), tetracycline-induced expression; settings: for remaining activity at 0.049 µM / remaining activity at 0.195 µM / remaining activity at 0.781 µM / remaining activity at 3.1 µM / remaining activity at 12.5 µM / remaining activity at 50 µM: read-out: L-glutamate Max. (maximal asymptote) in the presence of test item, GluN1/GluN2D; for remaining activity at 0.049 µM: test item 0.049 μM; for remaining activity at 0.195 µM: test item 0.195 μM; for remaining activity at 0.781 µM: test item 0.781 μM; for remaining activity at 3.1 µM: test item 3.1 μM; for remaining activity at 12.5 µM: test item 12.5 μM; for remaining activity at 50 µM: test item 50 μM
[2] = target: T2, NR1-2B NMDAR (Homo sapiens, UniProt Q05586+Q13224); test: cell-based; format: cell-based; design: host or cells: CHO (CHO-hNR1-h2B), constitutive expression; settings: for remaining activity at 0.049 µM / remaining activity at 0.195 µM / remaining activity at 0.781 µM / remaining activity at 3.1 µM / remaining activity at 12.5 µM / remaining activity at 50 µM: read-out: L-glutamate Max. (maximal asymptote) in the presence of test item, GluN1/GluN2B; for remaining activity at 0.049 µM: test item 0.049 μM; for remaining activity at 0.195 µM: test item 0.195 μM; for remaining activity at 0.781 µM: test item 0.781 μM; for remaining activity at 3.1 µM: test item 3.1 μM; for remaining activity at 12.5 µM: test item 12.5 μM; for remaining activity at 50 µM: test item 50 μM
T2 sequence (Q13224 27-1484, other chains not shown): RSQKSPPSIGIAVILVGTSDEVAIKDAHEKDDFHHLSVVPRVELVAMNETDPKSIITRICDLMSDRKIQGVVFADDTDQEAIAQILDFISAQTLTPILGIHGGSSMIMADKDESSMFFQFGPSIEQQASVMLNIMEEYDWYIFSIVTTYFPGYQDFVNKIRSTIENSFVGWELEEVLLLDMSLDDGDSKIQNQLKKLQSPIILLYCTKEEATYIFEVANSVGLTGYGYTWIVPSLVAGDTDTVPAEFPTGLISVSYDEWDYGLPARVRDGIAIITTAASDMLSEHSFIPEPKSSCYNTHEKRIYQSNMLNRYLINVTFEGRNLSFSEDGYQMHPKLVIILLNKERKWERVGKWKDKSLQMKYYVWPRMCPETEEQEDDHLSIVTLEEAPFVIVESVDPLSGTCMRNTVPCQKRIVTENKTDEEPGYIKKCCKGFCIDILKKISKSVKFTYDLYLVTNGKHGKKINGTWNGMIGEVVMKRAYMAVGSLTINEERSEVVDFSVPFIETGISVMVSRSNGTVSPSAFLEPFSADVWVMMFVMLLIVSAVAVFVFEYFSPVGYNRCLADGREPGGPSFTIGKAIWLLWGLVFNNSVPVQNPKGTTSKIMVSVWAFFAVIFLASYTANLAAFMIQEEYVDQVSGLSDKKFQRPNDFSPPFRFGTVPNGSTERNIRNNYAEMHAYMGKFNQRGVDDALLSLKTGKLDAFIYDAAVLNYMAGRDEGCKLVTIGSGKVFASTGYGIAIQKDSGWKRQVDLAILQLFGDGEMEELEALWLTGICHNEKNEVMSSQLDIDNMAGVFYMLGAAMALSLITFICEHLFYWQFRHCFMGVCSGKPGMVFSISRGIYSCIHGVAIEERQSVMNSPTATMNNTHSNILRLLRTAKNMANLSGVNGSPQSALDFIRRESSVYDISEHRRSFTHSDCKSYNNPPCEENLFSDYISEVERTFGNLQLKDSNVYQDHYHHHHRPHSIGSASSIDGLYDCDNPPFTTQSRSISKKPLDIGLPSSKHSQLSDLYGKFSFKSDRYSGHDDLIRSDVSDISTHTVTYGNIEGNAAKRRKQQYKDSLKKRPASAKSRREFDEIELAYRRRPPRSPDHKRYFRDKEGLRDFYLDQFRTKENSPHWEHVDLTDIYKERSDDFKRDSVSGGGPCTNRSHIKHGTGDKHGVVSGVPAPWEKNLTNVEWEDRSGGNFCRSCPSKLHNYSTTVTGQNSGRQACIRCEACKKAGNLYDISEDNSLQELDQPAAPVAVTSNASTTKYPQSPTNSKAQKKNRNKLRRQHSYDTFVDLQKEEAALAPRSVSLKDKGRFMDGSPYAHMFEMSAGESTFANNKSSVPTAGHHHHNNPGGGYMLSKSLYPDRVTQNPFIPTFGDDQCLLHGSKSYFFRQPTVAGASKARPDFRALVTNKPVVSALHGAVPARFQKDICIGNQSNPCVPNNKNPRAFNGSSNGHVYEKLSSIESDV

[3] = target: T3, NR1-2C NMDAR (Homo sapiens, UniProt Q05586+Q14957); test: FLIPR Ca2+ assay, blocker concentration-response curve; format: cell-based; design: host or cells: CHO (CHO-hN1-h2C), tetracycline-induced expression; settings: for Min. (%), minimal % Ca2+ influx in the presence of 100 μM blocker: 10 µM L-glutamate, no Mg2+; for Slope: logistic fit of blocker CRC
T3 sequence (Q14957 20-1233, other chains not shown): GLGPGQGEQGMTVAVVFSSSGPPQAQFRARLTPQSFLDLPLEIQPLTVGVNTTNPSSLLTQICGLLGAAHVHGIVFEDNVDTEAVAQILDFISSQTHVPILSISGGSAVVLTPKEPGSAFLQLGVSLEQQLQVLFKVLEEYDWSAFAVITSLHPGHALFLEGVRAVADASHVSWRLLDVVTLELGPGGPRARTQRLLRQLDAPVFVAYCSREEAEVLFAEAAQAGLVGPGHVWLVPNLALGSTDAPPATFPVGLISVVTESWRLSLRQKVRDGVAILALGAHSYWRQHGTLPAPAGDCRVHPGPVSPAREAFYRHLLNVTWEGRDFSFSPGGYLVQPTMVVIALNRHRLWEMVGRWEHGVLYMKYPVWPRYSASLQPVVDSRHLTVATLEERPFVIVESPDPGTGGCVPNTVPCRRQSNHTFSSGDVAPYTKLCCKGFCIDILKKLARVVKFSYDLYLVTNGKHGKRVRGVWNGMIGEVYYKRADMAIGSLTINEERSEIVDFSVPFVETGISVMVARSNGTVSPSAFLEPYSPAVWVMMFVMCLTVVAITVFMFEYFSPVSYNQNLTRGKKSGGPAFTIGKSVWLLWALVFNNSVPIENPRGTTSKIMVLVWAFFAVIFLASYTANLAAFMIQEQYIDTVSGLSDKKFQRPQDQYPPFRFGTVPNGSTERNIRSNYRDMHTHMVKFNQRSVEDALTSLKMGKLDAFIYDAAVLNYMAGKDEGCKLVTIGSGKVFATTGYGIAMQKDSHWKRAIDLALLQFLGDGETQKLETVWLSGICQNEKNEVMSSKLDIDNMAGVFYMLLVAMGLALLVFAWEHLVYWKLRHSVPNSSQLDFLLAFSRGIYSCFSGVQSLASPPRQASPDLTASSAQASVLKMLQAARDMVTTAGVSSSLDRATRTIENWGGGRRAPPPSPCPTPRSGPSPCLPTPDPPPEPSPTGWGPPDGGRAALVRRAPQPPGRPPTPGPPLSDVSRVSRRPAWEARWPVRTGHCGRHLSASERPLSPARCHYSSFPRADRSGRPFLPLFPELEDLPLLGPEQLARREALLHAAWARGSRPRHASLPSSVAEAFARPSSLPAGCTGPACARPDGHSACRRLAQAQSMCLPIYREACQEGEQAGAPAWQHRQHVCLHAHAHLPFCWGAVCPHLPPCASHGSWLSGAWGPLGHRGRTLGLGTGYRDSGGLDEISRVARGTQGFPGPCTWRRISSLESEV
Text: (§1) CHO cell lines stably over-expressing heterodimeric NMDARs composed of human NR1 and 2 subunits were generated by Aptuit, an Evotec company (Verona, Italy). Cell line details are available at ExPASy Cellosaurus database. Research Resource Identifiers (RRIDs) are CVCL_B3TY, CVCL_B3TZ, CVCL_B3U0, and CVCL_B3U1 for CHO-hNR1-h2A, CHO-hNR1-h2B, CHO-hN1-h2C, and CHO-hN1-h2D, respectively. Protein accession numbers were NP_015566, NP_000824, NP_000825, NP_000826, and NP_000827 for NR1, 2A, 2B, 2C, and 2D, respectively. […] The four different heterodimeric NMDARs studied were NR1-2A, NR1-2B, NR1-2C, and NR1-2D. Cell lines were cultured for a maximum of 75 passages.
(§2) FLIPR assay allowed for indirect measurement of intracellular Ca^2+ concentration by means of a Ca^2+-sensitive fluorescent dye (Fluo-4) using the FLIPR instrument (Molecular Devices, San Jose, CA, USA). For these assays, 40 mM stock solutions of the test items were prepared in 100% dimethyl sulfoxide (DMSO), while glutamate and glycine 4 mM stock solutions were prepared in water. 384-well compound plates containing 400 × concentrated test item, glutamate, and glycine were prepared using Labcyte Echo acoustic dispensing system and stored at −20 °C until the day of the experiment.
(§3) Glycine 10 μM was always included in every test item addition.
(§4) Glycine was kept at a constant concentration of 10 μM during experiments.

[4] = target: T3, NR1-2C NMDAR; test: cell-based; format: cell-based; design: host or cells: CHO (CHO-hN1-h2C), tetracycline-induced expression; settings: for remaining activity at 0.049 µM / remaining activity at 0.195 µM / remaining activity at 0.781 µM / remaining activity at 3.1 µM / remaining activity at 12.5 µM / remaining activity at 50 µM: read-out: L-glutamate Max. (maximal asymptote) in the presence of test item, GluN1/GluN2C; for remaining activity at 0.049 µM: test item 0.049 μM; for remaining activity at 0.195 µM: test item 0.195 μM; for remaining activity at 0.781 µM: test item 0.781 μM; for remaining activity at 3.1 µM: test item 3.1 μM; for remaining activity at 12.5 µM: test item 12.5 μM; for remaining activity at 50 µM: test item 50 μM
[5] = target: T4, NR1-2A NMDAR (Homo sapiens, UniProt Q05586+Q12879); test: cell-based; format: cell-based; design: host or cells: CHO (CHO-hNR1-h2A), tetracycline-induced expression; settings: for remaining activity at 0.049 µM / remaining activity at 0.195 µM / remaining activity at 0.781 µM / remaining activity at 3.1 µM / remaining activity at 12.5 µM / remaining activity at 50 µM: read-out: L-glutamate Max. (maximal asymptote) in the presence of test item, GluN1/GluN2A; for remaining activity at 0.049 µM: test item 0.049 μM; for remaining activity at 0.195 µM: test item 0.195 μM; for remaining activity at 0.781 µM: test item 0.781 μM; for remaining activity at 3.1 µM: test item 3.1 μM; for remaining activity at 12.5 µM: test item 12.5 μM; for remaining activity at 50 µM: test item 50 μM
T4 sequence (Q12879 23-1464, other chains not shown): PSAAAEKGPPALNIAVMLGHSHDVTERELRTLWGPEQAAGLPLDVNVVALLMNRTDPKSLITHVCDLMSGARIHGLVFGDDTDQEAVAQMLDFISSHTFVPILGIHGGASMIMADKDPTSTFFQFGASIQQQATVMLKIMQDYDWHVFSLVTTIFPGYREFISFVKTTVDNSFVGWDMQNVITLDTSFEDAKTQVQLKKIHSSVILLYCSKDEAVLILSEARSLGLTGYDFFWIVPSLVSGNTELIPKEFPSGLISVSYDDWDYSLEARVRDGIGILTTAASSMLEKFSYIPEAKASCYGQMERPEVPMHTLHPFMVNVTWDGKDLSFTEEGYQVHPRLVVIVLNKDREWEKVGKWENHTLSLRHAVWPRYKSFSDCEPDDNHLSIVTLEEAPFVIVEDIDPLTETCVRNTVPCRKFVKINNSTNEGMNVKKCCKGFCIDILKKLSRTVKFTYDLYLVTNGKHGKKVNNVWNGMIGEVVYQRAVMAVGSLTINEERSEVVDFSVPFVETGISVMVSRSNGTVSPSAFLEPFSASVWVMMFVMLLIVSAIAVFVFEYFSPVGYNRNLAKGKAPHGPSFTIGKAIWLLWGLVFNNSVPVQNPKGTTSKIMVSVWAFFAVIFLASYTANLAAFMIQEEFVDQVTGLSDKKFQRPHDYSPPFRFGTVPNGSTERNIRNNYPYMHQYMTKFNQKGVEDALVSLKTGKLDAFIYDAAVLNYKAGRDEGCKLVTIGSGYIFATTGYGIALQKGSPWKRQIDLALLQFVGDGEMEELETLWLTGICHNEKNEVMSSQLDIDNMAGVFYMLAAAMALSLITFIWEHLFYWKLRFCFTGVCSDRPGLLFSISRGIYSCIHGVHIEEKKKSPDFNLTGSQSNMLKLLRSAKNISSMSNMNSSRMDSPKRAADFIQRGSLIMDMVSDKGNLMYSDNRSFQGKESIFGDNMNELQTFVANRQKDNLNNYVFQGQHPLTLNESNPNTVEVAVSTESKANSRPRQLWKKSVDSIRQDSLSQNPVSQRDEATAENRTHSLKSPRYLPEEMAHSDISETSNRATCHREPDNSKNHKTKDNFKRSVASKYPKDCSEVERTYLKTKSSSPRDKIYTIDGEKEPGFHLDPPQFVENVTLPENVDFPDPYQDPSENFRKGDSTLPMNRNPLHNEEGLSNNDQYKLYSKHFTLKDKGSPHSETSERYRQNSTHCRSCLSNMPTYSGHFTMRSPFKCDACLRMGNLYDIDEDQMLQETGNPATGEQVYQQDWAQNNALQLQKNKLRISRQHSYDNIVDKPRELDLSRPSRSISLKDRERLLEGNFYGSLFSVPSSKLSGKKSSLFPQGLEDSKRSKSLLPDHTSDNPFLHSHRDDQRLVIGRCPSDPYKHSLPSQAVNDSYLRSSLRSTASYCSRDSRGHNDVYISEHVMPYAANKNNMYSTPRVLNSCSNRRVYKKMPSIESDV

[6] = target: T4, NR1-2A NMDAR; test: FLIPR Ca2+ assay, blocker concentration-response curve; format: cell-based; design: host or cells: CHO (CHO-hNR1-h2A), tetracycline-induced expression; settings: for Slope: logistic fit of blocker CRC
Text: as §1, §2, §3, §4

[7] = target: T1, NR1-2D NMDAR; test: as above; format: cell-based; design: host or cells: CHO (CHO-hN1-h2D), tetracycline-induced expression; settings: for Min. (%), minimal % Ca2+ influx in the presence of 100 μM blocker: 10 µM L-glutamate, no Mg2+; for Slope: logistic fit of blocker CRC
Text: as §1, §2, §3, §4

[8] = target: T2, NR1-2B NMDAR; test: as above; format: cell-based; design: host or cells: CHO (CHO-hNR1-h2B), constitutive expression; settings: for Min. (%), minimal % Ca2+ influx in the presence of 100 μM blocker: 10 µM L-glutamate, no Mg2+; for Slope: logistic fit of blocker CRC
Text: as §1, §2, §3, §4

[9] = target: T2, NR1-2B NMDAR; test: Whole-cell manual patch-clamp REL-1017 CRC in 1 mM MgCl2; settings: 1 mM MgCl2, 1 μM L-glutamate, −60 mV
[10] = target: T4, NR1-2A NMDAR; test: as above; settings: 1 mM MgCl2, 1 μM L-glutamate, −60 mV
[11] = target: T1, NR1-2D NMDAR; test: as above; settings: 1 mM MgCl2, 1 μM L-glutamate, −60 mV
[12] = target: T3, NR1-2C NMDAR; test: Whole-cell manual patch-clamp: current block, onset/offset kinetics and trapping, no Mg2+; settings: test item 10 µM, −70 mV
[13] = target: T3, NR1-2C NMDAR; test: Whole-cell manual patch-clamp REL-1017 CRC in 1 mM MgCl2; settings: 1 mM MgCl2, 1 μM L-glutamate, −60 mV

COc1ccc2c(c1)[C@]13CCCC[C@@H]1[C@H](C2)N(C)CC3 [Dextromethorphan, dextromethorphan]
Kb ([1]; NR1-2D, operational equation for allosteric modulators, no Mg2+): 6.7 µM
Affinity Ratio (%) ([1]; NR1-2D, reciprocal of KB, highest affinity subtype = 100%): 18%
remaining activity at 0.049 µM [1]: 93%
remaining activity at 0.195 µM [1]: 91%
remaining activity at 0.781 µM [1]: 99%
remaining activity at 3.1 µM [1]: 87%
remaining activity at 12.5 µM [1]: 59%
remaining activity at 50 µM [1]: 31%
Kb ([2]; NR1-2B, operational equation for allosteric modulators, no Mg2+): 1.9 µM
Affinity Ratio (%) ([2]; NR1-2B, reciprocal of KB, highest affinity subtype = 100%): 63%
remaining activity at 0.049 µM [2]: 95%
remaining activity at 0.195 µM [2]: 92%
remaining activity at 0.781 µM [2]: 88%
remaining activity at 3.1 µM [2]: 74%
remaining activity at 12.5 µM [2]: 57%
remaining activity at 50 µM [2]: 32%
Min. (%), minimal % Ca2+ influx in the presence of 100 μM blocker [3]: 14%
Slope [3]: −1.0
Kb ([4]; NR1-2C, operational equation for allosteric modulators, no Mg2+): 1.2 µM
Affinity Ratio (%) ([4]; NR1-2C, reciprocal of KB, highest affinity subtype = 100%): 100%
remaining activity at 0.049 µM [4]: 95%
remaining activity at 0.195 µM [4]: 97%
remaining activity at 0.781 µM [4]: 86%
remaining activity at 3.1 µM [4]: 67%
remaining activity at 12.5 µM [4]: 26%
remaining activity at 50 µM [4]: 13%
Kb ([5]; NR1-2A, operational equation for allosteric modulators, no Mg2+): 9.6 µM
Affinity Ratio (%) ([5]; NR1-2A, reciprocal of KB, highest affinity subtype = 100%): 13%
remaining activity at 0.049 µM [5]: 98%
remaining activity at 0.195 µM [5]: 92%
remaining activity at 0.781 µM [5]: 99%
remaining activity at 3.1 µM [5]: 88%
remaining activity at 12.5 µM [5]: 79%
remaining activity at 50 µM [5]: 44%
Min. (%), minimal % Ca2+ influx in the presence of 100 μM blocker ([6]; 100 μM blocker, 10 µM L-glutamate, no Mg2+): 35%
Slope [6]: −0.80
Min. (%), minimal % Ca2+ influx in the presence of 100 μM blocker [7]: 43%
Slope [7]: −1.2
Min. (%), minimal % Ca2+ influx in the presence of 100 μM blocker [8]: 14%
Slope [8]: −0.89

CCC(=O)C(C[C@H](C)N(C)C)(c1ccccc1)c1ccccc1 [REL-1017, dextromethadone HCl]
remaining activity at 0.049 µM [1]: 101%
remaining activity at 0.195 µM [1]: 97%
remaining activity at 0.781 µM [1]: 101%
remaining activity at 3.1 µM [1]: 97%
remaining activity at 12.5 µM [1]: 82%
remaining activity at 50 µM [1]: 41%
remaining activity at 0.049 µM [2]: 96%
remaining activity at 0.195 µM [2]: 96%
remaining activity at 0.781 µM [2]: 93%
remaining activity at 3.1 µM [2]: 89%
remaining activity at 12.5 µM [2]: 72%
remaining activity at 50 µM [2]: 35%
Min. (%), minimal % Ca2+ influx in the presence of 100 μM blocker [3]: 15%
Slope [3]: −0.84
Hill Slope [9]: 1.17
Hill Slope [10]: 1.06
Hill Slope [11]: 1.42
remaining activity at 0.049 µM [4]: 99%
remaining activity at 0.195 µM [4]: 100%
remaining activity at 0.781 µM [4]: 95%
remaining activity at 3.1 µM [4]: 94%
remaining activity at 12.5 µM [4]: 75%
remaining activity at 50 µM [4]: 30%
I1 (% Current) at end of test item addition, normalized to I0 ([12]; 30 s co-application): 20.4%
I2 (% Current) at end of test item removal, normalized to I0 ([12]; 50 s after removal): 98.5%
BR (residual block) ([12]; after wash with glycine alone): 71.8 ± 1.1
B (initial block) [12]: 84 ± 1% and 83.8 ± 1.2 %
BT (trapped block, BR/B × 100) [12]: 85.9 ± 1.9%
Tau off [12]: 17.7 ± 1.0 s
Tau on [12]: 4.7 ± 0.21 s
remaining activity at 0.049 µM [5]: 103%
remaining activity at 0.195 µM [5]: 98%
remaining activity at 0.781 µM [5]: 103%
remaining activity at 3.1 µM [5]: 98%
remaining activity at 12.5 µM [5]: 84%
remaining activity at 50 µM [5]: 35%
Slope [6]: −1.0
Hill Slope [13]: 1.49
Min. (%), minimal % Ca2+ influx in the presence of 100 μM blocker [7]: 47%
Slope [7]: −0.68
Min. (%), minimal % Ca2+ influx in the presence of 100 μM blocker [8]: 14%
Slope [8]: −1.1

— paper PMC9414551 (Pharmaceuticals, 2022)
